In patent US20220089575A1, “FARNESOID X RECEPTOR AGONISTS AND USES THEREOF” (Metacrine, Inc., priority 2017, published 2022):

target: T1, hFXR (Homo sapiens, UniProt Q96RI1); assay: In Vitro FXR Assay (TK): TK-ECRE-luc reporter in transfected CV-1 cells; type: cell-based; conditions: 18 hrs, luminescence, maximum efficacy of <25% of the Fexarmine control classified as '+'
T1 construct: expressed in transfected cells; host or cells: CV-1 cells
T1 sequence (Q96RI1 1-486): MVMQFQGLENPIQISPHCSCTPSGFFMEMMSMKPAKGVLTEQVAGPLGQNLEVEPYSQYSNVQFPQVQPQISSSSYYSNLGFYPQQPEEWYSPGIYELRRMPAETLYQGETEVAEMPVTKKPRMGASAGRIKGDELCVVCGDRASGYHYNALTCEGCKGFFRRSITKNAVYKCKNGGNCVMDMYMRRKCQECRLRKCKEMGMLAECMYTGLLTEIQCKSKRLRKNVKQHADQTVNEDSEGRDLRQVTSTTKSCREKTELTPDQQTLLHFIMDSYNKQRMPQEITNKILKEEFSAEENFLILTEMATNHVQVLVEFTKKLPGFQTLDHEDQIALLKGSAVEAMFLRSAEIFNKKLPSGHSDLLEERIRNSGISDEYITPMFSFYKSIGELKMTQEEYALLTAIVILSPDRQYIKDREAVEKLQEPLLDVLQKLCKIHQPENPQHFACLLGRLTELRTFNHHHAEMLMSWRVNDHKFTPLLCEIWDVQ
T1 sequence (P19793 1-462 partner): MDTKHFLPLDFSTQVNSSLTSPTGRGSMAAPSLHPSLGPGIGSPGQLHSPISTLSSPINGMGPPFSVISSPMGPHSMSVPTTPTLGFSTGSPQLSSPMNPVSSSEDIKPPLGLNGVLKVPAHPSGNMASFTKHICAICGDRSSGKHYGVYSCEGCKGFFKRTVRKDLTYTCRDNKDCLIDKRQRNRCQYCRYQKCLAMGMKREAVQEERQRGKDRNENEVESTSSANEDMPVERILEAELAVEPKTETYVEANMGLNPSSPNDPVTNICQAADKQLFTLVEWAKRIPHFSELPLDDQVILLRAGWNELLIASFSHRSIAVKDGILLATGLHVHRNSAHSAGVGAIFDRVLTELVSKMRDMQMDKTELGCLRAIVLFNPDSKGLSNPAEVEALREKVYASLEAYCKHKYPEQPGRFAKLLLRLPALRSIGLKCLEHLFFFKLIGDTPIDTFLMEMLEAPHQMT
Procedure, shortened: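 CV-1 cells transiently co-transfected with hFXR, hRXR, TK-ECRE-luc and pCMX-YFP plasmids in charcoal-stripped serum medium. Serially diluted compounds added, cells incubated 18 h at 37° C, then lysed and luminescence read.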

Question: For `COc1ccc([C@H]2CC[C@H](CN(c3cccc(-c4cnn(C(C)C)c4)c3)C(=O)[C@H]3CC[C@H](OC(=O)N4CC(O)C4)CC3)CC2)cc1C#N` [Compound 7.20, trans-4-(((trans-4-(3-Cyano-4-methoxyphenyl)cyclohexyl)methyl)(3-(1-isopropyl-1H-pyrazol-4-yl)phenyl)carbamoyl)cyclohexyl 3-hydroxyazetidine-1-carboxylate], which EC50 is on record?
Answer: ≤ 250 nM

Question: How did the EC50 turn out when `COc1ccc([C@H]2CC[C@H](CN(c3cccc(-c4cnc(C5CC5)s4)c3)C(=O)[C@H]3CC[C@H](NC(=O)C(C)(C)O)CC3)CC2)cc1C` [Compound 27, trans-N-(3-(2-Cyclopropylthiazol-5-yl)phenyl)-4-(2-hydroxy-2-methylpropanamido)-N-((trans-4-(4-methoxy-3-methylphenyl)cyclohexyl)methyl)cyclohexanecarboxamide] was run?
Answer: ≤ 250 nM

Question: With `COc1ccc([C@H]2CC[C@H](CN(c3cc(-c4coc(C5CC5)n4)ccn3)C(=O)[C@H]3CC[C@H](OC(=O)NC4COC4)CC3)CC2)nc1C` [Compound 6.60, trans-4-((4-(2-Cyclopropyloxazol-4-yl)pyridine-2-yl)((trans-4-(5-methoxy-6-methylpyridin-2-yl)cyclohexyl)methyl)carbamoyl)cyclohexyl oxetan-3-ylcarbamate] as the compound, how does the EC50 read?
Answer: ≤ 250 nM

Question: Which EC50 does the source give for `CCCCC(=O)N[C@H]1CC[C@H](C(=O)N(C[C@H]2CC[C@H](c3ccc(OC)c(C)c3)CC2)c2cccc(-c3cnc(C4CC4)s3)c2)CC1` [Compound 25.17, trans-N-(3-(2-Cyclopropylthiazol-5-yl)phenyl)-N-((trans-4-(4-methoxy-3-methylphenyl)cyclohexyl)methyl)-4-pentanamidocyclohexanecarboxamide] here?
Answer: ≤ 250 nM

Question: How did the EC50 turn out when `COc1ccc([C@H]2CC[C@H](CN(c3cccc(-c4coc(C5CC5)n4)c3)C(=O)[C@H]3CC[C@H](CC(=O)O)CC3)CC2)cc1C#N` [Compound 21.05, 2-(trans-4-(((trans-4-(3-Cyano-4-methoxyphenyl)cyclohexyl)methyl)(3-(2-cyclopropyloxazol-4-yl)phenyl)carbamoyl)cyclohexyl)acetic acid] was run?
Answer: ≤ 250 nM

Question: With `COc1ccc([C@H]2CC[C@H](CN(c3cc(-c4cnn(C(C)C)c4)ccn3)C(=O)[C@H]3CC[C@H](OC(=O)N4CC(O)C4)CC3)CC2)nc1C#N` [Compound 7.40, trans-4-(((trans-4-(6-Cyano-5-methoxypyridin-2-yl)cyclohexyl)methyl)(4-(1-isopropyl-1H-pyrazol-4-yl)pyridin-2-yl)carbamoyl) cyclohexyl 3-hydroxyazetidine-1-carboxylate] as the compound, how does the EC50 read?
Answer: ≤ 250 nM

Question: For `COc1ccc([C@H]2CC[C@H](CN(c3cccc(-c4cnc(C5CC5)s4)c3)C(=O)[C@H]3CC[C@H](NC(=O)C4COC4)CC3)CC2)cc1C` [Compound 27.02, N-(trans-4-((3-(2-Cyclopropylthiazol-5-yl)phenyl)((trans-4-(4-methoxy-3-methylphenyl)cyclohexyl)methyl)carbamoyl)cyclohexyl)oxetane-3-carboxamide], which EC50 is on record?
Answer: ≤ 250 nM

Question: How did the EC50 turn out when `COc1ccc([C@H]2CC[C@H](CN(c3cc(-c4cnn(C5CC5)c4)ccn3)C(=O)[C@H]3CC[C@H](OC(=O)N4CC(O)C4)CC3)CC2)cc1C#N` [Compound 7.21, trans-4-(((trans-4-(3-Cyano-4-methoxyphenyl)cyclohexyl)methyl)(4-(1-cyclopropyl-1H-pyrazol-4-yl)pyridin-2-yl)carbamoyl)cyclohexyl 3-hydroxyazetidine-1-carboxylate] was run?
Answer: ≤ 250 nM

Question: For `COc1ccc([C@H]2CC[C@H](CN(c3cccc(-c4cnn(C5CC5)c4)c3)C(=O)[C@H]3CC[C@H](CO)CC3)CC2)cc1C` [Compound 15, trans-N-(3-(1-Cyclopropyl-1H-pyrazol-4-yl)phenyl)-4-(hydroxymethyl)-N-((trans-4-(4-methoxy-3-methylphenyl)cyclohexyl)methyl) cyclohexanecarboxamide], which EC50 is on record?
Answer: ≤ 250 nM

Question: `COc1ccc(C23CCC(CN(c4cccc(-c5cnn(C6CC6)c5)c4)C(=O)[C@H]4CC[C@H](OC(=O)N5CC(O)C5)CC4)(CC2)CC3)cc1C` [Compound 7.12, 4-((3-(1-Cyclopropyl-1H-pyrazol-4-yl)phenyl)((4-(4-methoxy-3-methylphenyl)bicyclo[2.2.2]octan-1-yl)methyl)carbamoyl)cyclohexyl trans-3-hydroxyazetidine-1-carboxylate] was tested. Which EC50 did it give?
Answer: ≤ 250 nM

Question: With `COc1ccc([C@H]2CC[C@H](CN(c3cccc(-c4cnc(C5CC5)s4)c3)C(=O)[C@H]3CC[C@H](c4nnn[nH]4)CC3)CC2)cc1C` [Compound 33, trans-N-(3-(2-Cyclopropylthiazol-5-yl)phenyl)-N-((trans-4-(4-methoxy-3-methylphenyl)cyclohexyl)methyl)-4-(2H-tetrazol-5-yl)cyclohexanecarboxamide] as the compound, how does the EC50 read?
Answer: ≤ 250 nM

Question: Which EC50 does the source give for `COc1ccc([C@H]2CC[C@H](CN(c3cc(-c4cnn(C5CC5)c4)ccn3)C(=O)[C@H]3CC[C@H](CC(=O)O)CC3)CC2)cc1C` [Compound 20.10, 2-(trans-4-((4-(1-Cyclopropyl-1H-pyrazol-4-yl)pyridin-2-yl)((trans-4-(4-methoxy-3-methylphenyl)cyclohexyl)methyl)carbamoyl)cyclohexyl)acetic acid] here?
Answer: ≤ 250 nM

Question: With `COc1ccc([C@H]2CC[C@H](CN(c3cccc(-c4cnc(C5CC5)s4)c3)C(=O)[C@H]3CC[C@H](C(=O)O)CC3)CC2)cc1C` [Compound 17, trans-4-((3-(2-Cyclopropylthiazol-5-yl)phenyl)((trans-4-(4-methoxy-3-methylphenyl)cyclohexyl)methyl)carbamoyl)cyclohexanecarboxylic acid] as the compound, how does the EC50 read?
Answer: ≤ 250 nM

Question: For `COc1ccc([C@H]2CC[C@H](CN(c3cccc(-c4cnn(C5CC5)c4)c3)C(=O)[C@H]3CC[C@H](C(=O)OC(C)C)CC3)CC2)cc1C` [Compound 22.01, trans-Isopropyl 4-((3-(1-cyclopropyl-1H-pyrazol-4-yl)phenyl)((trans-4-(4-methoxy-3-methylphenyl)cyclohexyl)methyl)carbamoyl) cyclohexanecarboxylate], which EC50 is on record?
Answer: ≤ 250 nM

Question: With `COc1ccc([C@H]2CC[C@H](CN(c3cccc(-c4cnn(C5CC5)c4)c3)C(=O)[C@H]3CC[C@H](OC(=O)N4CC(CN(C)C)C4)CC3)CC2)cc1C` [Compound 7.32, trans-4-((3-(1-Cyclopropyl-1H-pyrazol-4-yl)phenyl)((trans-4-(4-methoxy-3-methylphenyl)cyclohexyl)methyl)carbamoyl)cyclohexyl 3-((dimethylamino)methyl)azetidine-1-carboxylate] as the compound, how does the EC50 read?
Answer: ≤ 250 nM

Question: How did the EC50 turn out when `CNC(=O)[C@H]1CC[C@H](C(=O)N(C[C@H]2CC[C@H](c3ccc(OC)c(C)c3)CC2)c2cccc(-c3cnc(OC)s3)c2)CC1` [Compound 24, trans-N^1-((trans-4-(4-Methoxy-3-methylphenyl)cyclohexyl)methyl)-N^1-(3-(2-methoxythiazol-5-yl)phenyl)-M-methylcyclohexane-1,4-dicarboxamide] was run?
Answer: ≤ 250 nM

Question: For `COc1ccc([C@H]2CC[C@H](CN(c3cc(-c4coc(C5CC5)n4)ccn3)C(=O)[C@H]3CC[C@H](OC(=O)N4CC(O)C4)CC3)CC2)cc1C` [Compound 7.67, trans-4-((4-(2-Cyclopropyloxazol-4-yl)pyridine-2-yl)((trans-4-(4-methoxy-3-methylphenyl)cyclohexyl)methyl)carbamoyl)cyclohexyl 3-hydroxyazetidine-1-carboxylate], which EC50 is on record?
Answer: ≤ 250 nM

Question: How did the EC50 turn out when `COc1ccc([C@H]2CC[C@H](CN(c3cccc(-c4cnn(C(C)C)c4)c3)C(=O)[C@H]3CC[C@H](OC(=O)NCCCO)CC3)CC2)nc1C` [Compound 6.16, trans-4-((3-(1-Isopropyl-1H-pyrazol-4-yl)phenyl)((trans-4-(5-methoxy-6-methylpyridin-2-yl)cyclohexyl)methyl)carbamoyl)cyclohexyl (3-hydroxypropyl)carbamate] was run?
Answer: ≤ 250 nM

Question: How did the EC50 turn out when `COc1ccc([C@H]2CC[C@H](CN(c3cc(-c4cnn(C5CC5)c4)ccn3)C(=O)[C@H]3CC[C@H](OC(=O)NCCO)CC3)CC2)cc1C` [Compound 4.19, trans-4-((4-(1-Cyclopropyl-1H-pyrazol-4-yl)pyridin-2-yl)((trans-4-(4-methoxy-3-methylphenyl)cyclohexyl)methyl)carbamoyl)cyclohexyl (2-hydroxyethyl)carbamate] was run?
Answer: ≤ 250 nM

Question: With `COc1ccc([C@H]2CC[C@H](CN(c3cccc(-c4cnc(C5CC5)s4)c3)C(=O)[C@H]3CC[C@H](NC(=O)COCCO)CC3)CC2)cc1C` [Compound 32.02, trans-N-(3-(2-Cyclopropylthiazol-5-yl)phenyl)-4-(2-(2-hydroxyethoxy)acetamido)-N-((trans-4-(4-methoxy-3-methylphenyl)cyclohexyl)methyl) cyclohexanecarboxamide] as the compound, how does the EC50 read?
Answer: ≤ 250 nM
